Laboratory results reported in patent US12404526B2, “Enhancing agents for improved cell transfection and/or rAAV vector production” (priority 2017, dated 2025).

System: HEK 293F cells
Assay: rAAV-FVIII vector production by PEI-transfected HEK 293F cells with enhancing agents, vector genome titer by Q-PCR
Type: cell-based, human
Procedure: Cell Culture: FreeStyle™ 293F (HEK 293F) cells purchased from Thermo Fisher Scientific (R79007) were cultured in FreeStyle™ F17 (F17) expression medium (Thermo Fisher Scientific, A1383501) supplemented with 1× GlutaMAX™ (Thermo Fisher Scientific, 35050-061) and 1× Antibiotic-antimycotic (Thermo Fisher Scientific, 15240). Cells were cultured in spinner flasks (Corning, 3152 or 3153), shake flask (Corning 431143, or 431145) or bioreactors. For spinner/shake flask, cells were cultured at 37° C. incubator with 170 rpm agitation and a humidified atmosphere of 8% CO2; for bioreactors (Eppendorf, DASGIP Parallel Bioreactor system, glass vessels and single use vessels), cell culture was controlled by programed parameters, (DO 40%, pH 7.2, agitation at 130 rpm, 150 rpm or 170 rpm). Typically, cells were seeded at 0.25-0.5×10^6/mL, subcultured every 2-3 days by adding fresh cell culture medium when cell density reached approximately 2-3×10^6/mL. Cell density and viability were determined using a Vi-cell™ XR cell viability Analyzer (Beckman Coulter).
Plasmids: Three plasmids were used to produce recombinant adeno-associated viral vectors (rAAV): 1) Transgene plasmid containing hFVIII flanked by ITRs, 2) A packaging plasmid containing rep and cap genes, 3) An adenoviral helper plasmid containing adenovirus E2, E4 and VARNA genes. All plasmids were purchased from and manufactured by Aldevron.
Preparation of PEI solutions: Linear polyethylenimine (PEI) “Max” 40 KDa (Polysciences, 24765-2, hydrochloride salt of the linear PEI 25 KDa) was used as transfection reagent. For transfection optimization studies, PEI “Max” was dissolved in 5 mM Tris to make a 0.5 mg/mL solution and the solution was adjusted to different pH, including pH7.0, 7.1, 7.2, 7.3, 7.4, 7.6, 7.8, or 8.0. After several studies, PEI solution at pH 7.1 was selected for all studies if not specified because of the best transfection and rAAV production.
Using enhancing agents in PEI-mediated transfection: The potential transfection enhancing agents evaluated for their effect on transfection and rAAV production were enhancer 1 and 2 in ExpiFectamine™ 293 Transfection Kit (Thermo Fisher Scientific, A14525), P3000 reagent in Lipofectamine® 3000 Transfection Kit (Thermo Fisher Scientific, L3000015), enhancer in Effectene™ Transfection Reagent Kit (Qiagen, 301427). Also studied were a variety of compounds including valproic acid, etoposide, teniposide, siomycin A and vorinostat to test their effectiveness on PEI cell transfection and rAAV production.
HEK 293F cells were grown in F17 medium plus 1× GlutaMAX™ Supplement and 1× Antibiotic-antimycotic in spinner flasks or shake flasks. The day before transfection, cells were seeded at 0.5-2×10^6 cells/mL by adding fresh medium. After 24 hr, cells were transfected at a cell density of 1-4×10^6 cells/mL. Three plasmids for transfection, hFVIII, Rep/cap, Ad2 helper, were used at a molar ratio of 1:1:1, 0.5:1:1 and 1:2:2, and at weight ratio of 0.75:0.75:0.75, 1:1:1 and 1.5:1.5:1.5. The total DNA amount used for transfection was from 0.5 to 4.2 μg per mL of cell culture volume. PEI/DNA complex was prepared with different weight ratios of PEI and DNA, at 1:1, 1.5:1, 2:1, 2.5:1 and 3:1, incubated at room temperature for 1, 5, 10, 15, 20, 25 and 30 minutes, then the DNA/PEI complexes were added to the cell culture. Free PEI (without DNA) from 0.5 to 5.6 μg/mL was added to the cell culture immediately after DNA/PEI complexes. Enhancing agents were added directly to the cells at the time of transfection or 24 hr before transfection or 16-18 hr after transfection. Different amounts of enhancing agents were studied. Samples, including cells and cell culture media, were taken at 48 and 72 hr post transfection for cell count and cell viability and cell culture was harvested at 72 hr post transfection. […]

## CCCC(CCC)C(=O)O [valproic acid]
2 mM at transfection, spinner flask, 1.2 μg/mL DNA, PEI/DNA 2:1, 1.5 μg/mL free PEI, FIG. 7
  rAAV vector production, fold higher than in the absence of valproic acid: 10 fold
1L bioreactor culture, 4 mM or higher, such as 5-8 mM, FIG. 8
  AAV vector production at increased valproic acid concentrations: improved
>4 mM (up to 8 mM) at transfection, 1 L bioreactor, PEI/DNA 2.5, FIG. 8
  AAV vector production, fold higher compared with 2 mM of valproic acid: 1.2-1.8 fold
Added at transfection, PEI-mediated transfection
  effect on rAAV productivity (compound screen): significantly increased
Optimized PEI-mediated transfection, serum-free suspension culture, 0.25-10 mM tested, FIG. 7
  rAAV-FVIII vector titer, fold increase compared to that without any enhancers: around 10 fold
Optimized PEI-mediated transfection, serum-free suspension culture, FIG. 7
  rAAV productivity level compared with enhancer 1 and 2: same rAAV productivity level or higher
Used alone in the optimized PEI-based transfection method
  rAAV vector productivity, fold higher than the currently reported production protocol using similar technologies: about 10 fold
